Where a name gives a salt, the structure may show the parent alone. Read-outs that look alike come from different tables or passages of the source.
Legend:
HUVECs = assay: Tube formation (tubulogenesis) assay in HUVECs, 18 h; type: cell-based, human; details: Homo sapiens, HUVEC, 18 h; for activity at 0.1 µM: 0.10 µM
In short: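 HUVECs (passage 1–5) seeded on reduced-growth-factor basement membrane and exposed to compounds overnight at 37°C, 5% CO2, in 2× maintenance medium with 12.5 ng/mL VEGF; 0.5% DMSO vehicle. Calcein AM-stained tube networks imaged and analysed; vehicle-normalized readouts fit to four-parameter logistic, POD set at one SD of vehicle means.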

[1] = system: iCell endothelial cells (human iPSC-derived ECs); assay: High-content imaging cytotoxicity in iCell endothelial cells, 24 h; type: cell-based; details: Homo sapiens, Endothelial cell, 24 hr; for viability at 0.1 µM / activity at 0.1 µM: 0.10 µM
In short: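 Readouts were vehicle-normalised and fitted to a four-parameter logistic model. POD was set at one SD beyond 0.5% DMSO control means, and 100 µM was assigned when no response was seen. Cells were monolayers of iCell endothelial cells imaged after 24 h compound exposure using nuclear, mitochondrial and calcein dyes.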

[2] = HUVECs, 0.00 µM = 100.00, read-out: huvec.mtl.18hr
[3] = HUVECs, 0.00 µM = 100.00, read-out: huvec.tlps.18hr
[4] = HUVECs, 0.00 µM = 100.00, read-out: huvec.tta.18hr
[5] = HUVECs, 0.00 µM = 100.00, read-out: huvec.ttl.18hr
[6] = iPSC-EC, 0.00 µM control = 100.00, read-out: endo.cyto.24hr
[7] = iPSC-EC, 0.00 µM control = 100.00, read-out: endo.mito.24hr
[8] = iPSC-EC, 0.00 µM control = 100.00, read-out: endo.mitoint.24hr
[9] = iPSC-EC, 0.00 µM control = 100.00, read-out: endo.nma.24hr
[10] = iPSC-EC, 0.00 µM control = 100.00, read-out: endo.tc.24hrs

## O=S(=O)(O)Oc1cc(-c2ccccc2)ccc1Cl [3-yl PCB 3 sulfate]
HUVECs; [2]
  activity at 0.01 µM: 95%
  activity at 0.1 µM: 100%
  activity at 1 µM: 94.1%
  activity at 10 µM: 91.9%
  activity at 100 µM: 62.3%
HUVECs; [3]
  activity at 0.01 µM: 89.1%
  activity at 0.1 µM: 109%
  activity at 1 µM: 116%
  activity at 10 µM: 112%
  activity at 100 µM: 58.1%
HUVECs; [4]
  activity at 0.01 µM: 78%
  activity at 0.1 µM: 141%
  activity at 1 µM: 124%
  activity at 10 µM: 114%
  activity at 100 µM: 63.7%
HUVECs; [5]
  activity at 0.01 µM: 73.3%
  activity at 0.1 µM: 137%
  activity at 1 µM: 123%
  activity at 10 µM: 110%
  activity at 100 µM: 61.1%
HUVECs; HUVECs, top concentration 100.00 µM, read-out: huvec.mtl.18hr POD
  minimal effective concentration: 11.5 µM
HUVECs; HUVECs, top concentration 100.00 µM, read-out: huvec.tlps.18hr POD
  minimal effective concentration: 65.8 µM
HUVECs; HUVECs, top concentration 100.00 µM, read-out: huvec.tta.18hr POD
  minimal effective concentration: 100 µM
HUVECs; HUVECs, top concentration 100.00 µM, read-out: huvec.ttl.18hr POD
  minimal effective concentration: 52.1 µM
[1]; [6]
  viability at 0.01 µM: 93.7%
  viability at 0.1 µM: 93%
  viability at 1 µM: 102%
  viability at 10 µM: 96.5%
  viability at 100 µM: 96.6%
[1]; [7]
  activity at 0.01 µM: 93.8%
  activity at 0.1 µM: 93.3%
  activity at 1 µM: 103%
  activity at 10 µM: 96.5%
  activity at 100 µM: 96.5%
[1]; [8]
  activity at 0.01 µM: 120%
  activity at 0.1 µM: 105%
  activity at 1 µM: 104%
  activity at 10 µM: 104%
  activity at 100 µM: 98.4%
[1]; [9]
  activity at 0.01 µM: 104%
  activity at 0.1 µM: 104%
  activity at 1 µM: 97.9%
  activity at 10 µM: 99.6%
  activity at 100 µM: 99.8%
[1]; [10]
  viability at 0.01 µM: 93.7%
  viability at 0.1 µM: 93%
  viability at 1 µM: 102%
  viability at 10 µM: 96.5%
  viability at 100 µM: 96.6%
[1]; iPSC-EC, top concentration 100.00 µM, read-out: endo.cyto.24hr POD
  minimal effective concentration: 100 µM
[1]; iPSC-EC, top concentration 100.00 µM, read-out: endo.mito.24hr POD
  minimal effective concentration: 100 µM
[1]; iPSC-EC, top concentration 100.00 µM, read-out: endo.mitoint.24hr POD
  minimal effective concentration: 100 µM
[1]; iPSC-EC, top concentration 100.00 µM, read-out: endo.nma.24hr POD
  minimal effective concentration: 100 µM
[1]; iPSC-EC, top concentration 100.00 µM, read-out: endo.tc.24hrs POD
  minimal effective concentration: 100 µM

## COc1ccc(-c2cccc(Cl)c2)cc1Cl [4-OMe-PCB 11, 4-methoxy-3,3′-dichlorobiphenyl]
HUVECs; tube formation mtl, read-out: POD huvec.mtl.18hr
  minimal effective concentration: 9.33 µM
HUVECs; tube formation tlps, read-out: POD huvec.tlps.18hr
  minimal effective concentration: 25.8 µM
HUVECs; tube formation tta, read-out: POD huvec.tta.18hr
  minimal effective concentration: 100 µM
HUVECs; tube formation ttl, read-out: POD huvec.ttl.18hr
  minimal effective concentration: 1.22 µM
[1]; endothelial cells (endo), cyto, read-out: POD endo.cyto.24hr
  minimal effective concentration: 100 µM
[1]; endothelial cells (endo), mito, read-out: POD endo.mito.24hr
  minimal effective concentration: 100 µM
[1]; endothelial cells (endo), mitoint, read-out: POD endo.mitoint.24hr
  minimal effective concentration: 100 µM
[1]; endothelial cells (endo), nma, read-out: POD endo.nma.24hr
  minimal effective concentration: 100 µM
[1]; endothelial cells (endo), tc, read-out: POD endo.tc.24hr
  minimal effective concentration: 100 µM

From publication PMC7377239, “Cardiovascular Effects of Polychlorinated Biphenyls and Their Major Metabolites” (Environmental Health Perspectives, 2020)
